BindingDB's records for doi:10.1161/01.cir.102.23.2836 (Nih, 2000)
“And” between values parts separate entries of the source, which are not always exact repeats. Equal values may be shown once.

Experiments:
[1] = molecular target: T1, 5-hydroxytryptamine receptor 2C (Rattus norvegicus, UniProt P08909)
T1 sequence (P08909 whole entry): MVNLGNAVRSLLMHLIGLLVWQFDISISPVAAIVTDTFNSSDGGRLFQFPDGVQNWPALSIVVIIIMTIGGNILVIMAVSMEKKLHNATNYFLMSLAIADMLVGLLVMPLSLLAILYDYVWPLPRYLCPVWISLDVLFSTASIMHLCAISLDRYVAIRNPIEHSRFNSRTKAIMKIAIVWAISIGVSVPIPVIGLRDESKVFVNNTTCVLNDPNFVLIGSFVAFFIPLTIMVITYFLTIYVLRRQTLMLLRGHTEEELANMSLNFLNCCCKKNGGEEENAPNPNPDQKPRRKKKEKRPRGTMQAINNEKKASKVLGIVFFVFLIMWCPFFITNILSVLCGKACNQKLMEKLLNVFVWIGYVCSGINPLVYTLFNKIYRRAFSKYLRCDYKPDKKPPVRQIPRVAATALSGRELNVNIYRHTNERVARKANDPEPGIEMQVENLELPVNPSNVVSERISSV

[2] = molecular target: 5-hydroxytryptamine receptor 2B (Homo sapiens, UniProt P41595)
5-hydroxytryptamine receptor 2B, sequence (P41595 whole entry): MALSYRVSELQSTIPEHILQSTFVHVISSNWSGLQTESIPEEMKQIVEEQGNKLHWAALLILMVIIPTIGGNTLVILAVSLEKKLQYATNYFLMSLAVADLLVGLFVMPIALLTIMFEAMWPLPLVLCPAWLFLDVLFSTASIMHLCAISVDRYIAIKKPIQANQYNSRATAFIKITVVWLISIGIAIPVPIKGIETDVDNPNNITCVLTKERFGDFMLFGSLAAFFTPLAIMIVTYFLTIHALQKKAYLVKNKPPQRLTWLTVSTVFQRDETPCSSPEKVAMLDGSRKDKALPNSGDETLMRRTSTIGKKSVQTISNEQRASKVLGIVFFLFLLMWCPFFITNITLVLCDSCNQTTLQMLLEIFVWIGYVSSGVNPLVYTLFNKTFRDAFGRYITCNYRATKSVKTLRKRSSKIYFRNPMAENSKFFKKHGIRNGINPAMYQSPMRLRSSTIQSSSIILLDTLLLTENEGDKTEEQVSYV

SMILES	Ki [1]	Ki [2]
CC[C@@H](CO)NC(=O)[C@@H]1C=C2c3cccc4c3c(cn4C)C[C@H]2N(C)C1	0.0018 µM	–
CC(C)(N)Cc1ccccc1 [2-methyl-1-phenylpropan-2-amine]	> 10 µM	> 10 µM
O=c1n(CCCN2CCN(c3cccc(Cl)c3)CC2)nc2ccccn12 [2-{3-[4-(3-chlorophenyl)piperazin-1-yl]propyl}[1,2,4]triazolo[4,3-a]pyridin-3(2H)-one]	0.402 µM	–
CN1C[C@H](C(=O)N[C@]2(C)O[C@@]3(O)[C@@H]4CCCN4C(=O)[C@H](Cc4ccccc4)N3C2=O)C=C2c3cccc4[nH]cc(c34)C[C@H]21 [12'-hydroxy-2'-methyl-5'alpha-(phenylmethyl)ergotaman-3',6',18-trione]	0.012 µM	0.003 µM
CC[C@@H](CO)NC(=O)[C@@H]1C=C2c3cccc4[nH]cc(c34)C[C@H]2N(C)C1 [Methylergometrine]	–	0.00049 µM
NCC[C@H](Oc1ccc(C(F)(F)F)cc1)c1ccccc1 [NORFLUOXETINE]	0.286 µM	5.06 µM
CCNC(C)Cc1cccc(C(F)(F)F)c1 (stereo not drawn) [NSC_3337]	3.18 µM and 6.25 µM and 3.42 µM	–
C[C@H](N)Cc1cccc(C(F)(F)F)c1 [Norfenfluramine (+)]	0.557 µM and 0.324 µM and 0.814 µM	0.0521 µM and 0.0112 µM and 0.0478 µM
Clc1cccc(N2CCNCC2)c1 [mCPP]	0.059 µM	–
